Test results: patent US6518012B1, “Method for regulating the expression of MHC antigens and CD40 by inhibitors of histone deacetylation” (Health Research, Inc., priority 1999, dated 2003)

Tested on: MHC class II protein on the cell surface
Experiment: Cell surface MHC class II protein by flow cytometry on Colon 26 and J558
Assay type: cell-based, mouse
Conditions: for expression of MHC class II protein on the cell surface: Colon 26 (50 nM TSA 48 hours) and J558 (25 nM TSA 24 hours), flow cytometry, IFNγ 100 U/ml same time
Protocol: To determine the effect of TSA on cell surface protein expression, the J558 cell line was subjected to flow cytometric analyses as follows. Flow cytometric analyses were conducted by standard methods using cells fixed with 1.0% paraformaldehyde and analyzed on the FACScan (Becton Dickinson). Cell cycle analyses were carried out by flow cytometry with PI staining of genomic DNA. Cells were fixed and permeablized in methanol, treated with RNaseA and analyzed for DNA content by determination of FL3-area on the FACScan. The FL3-area data were analyzed with the ModFit software for determination of the percent cells in each phase of the cell cycle. In some cases, fluorescein isothiocyanate (FITC)-conjugated antibody staining was conducted prior to PI treatment and surface staining was analyzed as a function of cell cycle phase. Apoptosis was analyzed by staining with annexin-V directly conjugated with either FITC or RPE and by sub-G0 analysis of DNA staining. Expression levels without treatment are shown as shaded peaks, IFNγ treated cell expression is plotted by a thin line while the level of expression on TSA treated cells is represented by a heavy line. Isotype controls were analyzed and, in each case, fell on or below the levels shown for control cells. MC and Colon 26 treatments are shown for 50 nM TSA for 48 hours, while J558 treatment is for 25 nM TSA for 24 hours. All IFNγ treatments were 100 U/ml for the same length of time as the corresponding TSA treatment. The percent of cells staining positive for MHC class II or CD40 expression is indicated below each histogram. Since all cells were positive for MHC class I expression, the number under the histogram represents -fold change of expression calculated from the mean channel-shift after treatment relative to untreated cells. Data are representative of at least three independent experiments. Of the 13 markers analyzed on J558 cells, only class I, II and CD40 were enhanced, while levels of several non-expressed antigens were not elicited (including CD25, B7 integrin, CD40L, H2K^k and IA^k) while other markers, which were expressed, were not altered (including CD44, CD54, CD80, CD86 and CD119) by TSA treatment. […] The highest expression (21-fold induction) was achieved on J558 cells after 24 hr by 25 nM TSA. […] The separation of control and IFNγ curves in the CD40, J558 experiment depicted in FIG. 8 represents a mean channel fluorescence difference of only 1.3 and was not seen on independent replicates of the experiment.
TSA has been described as a cell cycle inhibitor that induces both G1 and especially G2/M blocks (Bestor, 1998, Nature, 393:311-312; Yoshida et al., 1988, Exp. Cell Res. 177:122-131). MHC class II, but not class I, has been reported (Inokoshi et al., 1999, Biochem. Biophys. Res. Commun., 256:372-376; Monroe et al., 1983, J. Immunol., 130:626-631) to be regulated differentially during the cell cycle. Therefore the cell cycle of the cell lines used in the present invention was analyzed by DNA staining and flow cytometry with each of the treatment conditions under study. […] Two additional methods were used to analyze cell cycle effects on MHC expression. Since it has been reported that TSA arrests cell cycle mainly in G2/M, and class II has been reported to accumulate in G2/M (Monroe et al., 1983, supra), experiments were designed to essentially arrest 100% of J558 cells in G2/M with nocodazole. […] From the above experiments, it can be concluded that DAIs have specific effects on MHC class I and II, and CD40 gene expression, which is likely not a result of its action on the cell cycle.

For `CC(/C=C/C(=O)NO)=C\[C@@H](C)C(=O)c1ccc(N(C)C)cc1` [TSA, Trichostatin A], the “expression of MHC class II protein on the cell surface” value was “significantly induced”, the “cells positive for class II expression” value (Colon 26, TSA concentration used in FIG. 8 (50 nM for 48 hours)) was 53% and the “MHC class II positive cells” value (J558, G2/M arrest experiment with nocodazole, data not shown) was 75%. The “cells positive for class II expression” value (J558, TSA concentration used in FIG. 8 (25 nM for 24 hours)) was 87% and the “induction of cell surface MHC class II, mean channel fluorescence” value (J558 cells, 24 hr, 25 nM TSA, highest expression) was 21 fold.

In the case of “IFNγ: gamma-interferon, cytokine used as comparator at 100 U/ml”, the “expression of MHC class II protein on the cell surface” value is reported as “did not induce”.
